Results reported in patent publication US20140336159A1, “METHODS FOR TREATING AND DIAGNOSING RESPIRATORY TRACT INFECTIONS” (PULMATRIX, INC., priority 2011, published 2014).

What was measured:
[1] = test system: LPS stimulated peritoneal macrophages; assay: Cytokine secretion by LPS stimulated peritoneal macrophages; assay type: cell-based, mouse (C57BL/6); conditions: for LPS induced inflammatory mediator secretion (KC, IL-6): mouse macrophages, 10 ng/ml LPS, 2 hours, salts 0-50 mM
Text: Macrophages represent a key component of the innate immune system. Alveolar macrophages are thought to play a central role in disease pathogenesis by secreting pro-inflammatory cytokines and chemokines in the context of both chronic obstructive pulmonary disease (COPD) and cystic fibrosis (CF), two respiratory illnesses involving airway inflammation. It was hypothesized that given the prominent role of alveolar macrophages in LPS induced lung inflammation, it may be possible that Ca^2+-ion containing formulations directly influence the inflammatory response of the macrophage after LPS exposure. In order to test this hypothesis in-vitro, murine peritoneal macrophages were isolated. C57BL/6 female mice were anesthetized using isofluorane inhalant. […] To confirm macrophage phenotype, a cytospin preparation was performed. Cells were cultured in DMEM:F12 overnight. The following day the media was removed and the macrophages were exposed to media supplemented with varying concentrations of LPS (1 ng/ml to 1 microgram/ml), a dose range of supplemental calcium chloride (5 mM to 50 mM) as well as a dose range of calcium chloride in the presence of LPS for 2 hours. After 2 hours in culture the media was collected for analysis of inflammatory cytokines using LUMINEX® Multiplex immunoassays (Invitrogen/Life Technologies, Grand Island, N.Y.) and BIO-PLEX MANAGER™ software (Version 6) (Bio-Rad, Hercules, Calif.). Presto blue or trypan blue assays were used to determine cell viability. […] The media content for 3 representative inflammatory mediators (IL-6, KC and TNF-alpha) cultured under LPS free conditions (unstimulated) as well as cells exposed to 1 ng/ml LPS were analyzed.
(§1) To determine the effects of alternating the cation in the calcium chloride salt, LPS stimulated human or mouse macrophages were exposed to alternative divalent and monovalent cations, magnesium chloride and sodium chloride, as well as an alternative […] anion, calcium lactate. Normal human monocytes were differentiated into macrophage derived monocytes in culture for 7 days as described in Example 16, and perotineal derived mouse macrophages were described in Example 15. Following two hours of incubation with LPS (10 ng/ml) and the appropriate salt concentration, supernatants were collected for LUMINEX protein analysis of inflammatory cytokines.

human macrophages = assay: Cytokine secretion by LPS stimulated human monocyte-derived macrophages (normal and COPD-derived); assay type: cell-based; conditions: 10 ng/ml LPS, 2 hours; for LPS induced cytokine production (IL-8, IL-6): human macrophages, salts 0-50 mM
Protocol: Normal and COPD-derived human monocytes were differentiated into macrophage derived monocytes in culture for 7 days. Cells were thawed following storage in liquid nitrogen, and then plated at 2.0-2.5×10^5 cells/well (in 0.2 ml per well) in IMDM cell culture media containing 10% human serum and human GM-CSF (50 ng/ml). On day 7, assays were performed on the cells, using media containing serum but no GM-CSF. Cells were stimulated with 10 ng/ml LPS, and exposed to calcium chloride concentrations of either 10 or 25 mM. Following two hours, supernatants were collected for LUMINEX analysis of IL-8, IL-6, TNF alpha and MIP-1 alpha (FIG. 17A), IL-8 only for COPD (FIG. 17B). […] Calcium chloride reduced LPS induced inflammation in normal and COPD-derived human monocyte-derived macrophages.
as §1

[2] = test system: LPS stimulated peritoneal macrophages (TRPV channels); assay: Cytokine secretion by LPS stimulated macrophages treated with TRPV channel antagonists; assay type: cell-based, mouse
Text: The transient receptor potential V (TRPV) family of ion channels is sensitive to osmotic changes and has an intimate relationship with levels of intracellular calcium. […] In order to determine the influence of TRPV channels Ruthenium red, a potent, broad acting TRPV channel antagonist was used. […] The results can be seen in FIG. 20A. […] Following two hours, supernatants were collected for LUMINEX analysis of inflammatory cytokines. […] However, while treatment with SKF96365 did have an effect on LPS stimulated macrophages, it was not as pronounced as that of treatment with ruthenium red.

Influenza A/WSN/33/1 = assay type: cell-based
neutrophils in the BAL = assay: Ozone exposure mouse model; assay type: in vivo, mouse (BALB/cJ); conditions: 100 microgram/kg intranasal
Protocol: Female wild-type (BALB/cJ) were obtained from The Jackson Laboratory (Bar Harbor. ME) at six weeks of age. Mice were treated with dry powder formulations Leucine (98% leucine, 2% sodium chloride) and Formulation II (75% calcium lactate, 20% leucine, 5% sodium chloride) in a temperature and humidity controlled room (30±5% RH and 20±2° C.) or administered liquid treatments of a p38 MAP kinase inhibitor (100 microgram/kg, Tocris SB203580), and USP-Grade Saline (0.9% NaCl), Cardinal Health via the intranasal route. Naïve mice were not exposed to dry powder treatment. One hour following the end of treatment, conscious mice were placed in a custom plastic exposure chamber (26 cm×16 cm×12 cm, Braintree Scientific) on a heated pad at 37° C. Ozone was generated via corona discharge using OZ-2AD Ozone Generator (Ozone Solutions, Hull, Iowa) and diluted with 2.0 LPM (liter per minute) of USP breathing air (MedTech, Medford, Mass.) to a concentration of 3 ppm. The concentration inside the exposure chamber was sampled continuously at 1.0 LPM using UV-106L Ozone Analyzer (Ozone Solutions, Hull, Iowa). Mice were exposed to ozone for 1 hour. Control mice were placed in static cages and exposed to ambient air for a duration matched to each ozone exposure. Mice were euthanized 4 hours following the end of the ozone or air exposure using a fatal dose of pentobarbital. BAL and cell counts were performed. […]

TLR3 = TLR3 (Mus musculus, UniProt Q99MB1); conditions: TLR 3 ligand; negative values indicate increased KC
Protocol: (§2) It was hypothesized that calcium likely alters the immune response to LPS and possibly other TLR receptors in alveolar macrophages. To test this hypothesis, primary macrophages were isolated from mice. Briefly, C57BL/6 female mice were anesthetized using isofluorane inhalant. Animals were injected i.p. with 1.5 ml thioglycollate. Three to four days post injection mice were euthanized using CO2 to harvest peritoneal macrophages. Under sterile conditions, the abdominal wall was exposed and the peritoneal cavity was injected with 7 ml of lavage media, which was immediately recovered back into the syringe and deposited into a 50 mL conical tube. The peritoneal cavity was opened and the residual lavage media was recovered. Cell suspensions were centrifuged at 1200 rpm (RT-6000) for 8-10 minutes. The supernatant was removed and cell pellets were resuspended in 1-2 ml lysis buffer, incubated at room temperature (RT) for 1-2 minutes, and resuspended in18-19 ml cell culture media (DMEM/F-12). Cells were again centrifuged, supernatants were removed, the cell pellets were pooled, washed once more in cell culture media, centrifuged, and resuspended in 10 ml cell culture media, and cells were counted using a hemocytometer. To confirm macrophage phenotype, a cytospin preparation was performed. Cells were cultured in DMEM:F12 overnight. Cells were then stimulated with agonists to TLR4 (LPS or LipidA), TLR1/2 (pam3CSK4), TLR2/6 (FLS-1), TLR2 (LT-SA), TLR3 (Poly I:C), TLR 5 (Flagellin), TLR7 (Gardiquimod or Loxoribine) and TLR9 (CPG-ODN) ligands with 0, 10 or 25 mM calcium chloride supplemented to the media.

TLR7 = TLR7 (Mus musculus, UniProt P58681); conditions: TLR 7 ligand; negative values indicate increased KC
Protocol: as §2

TLR9 = TLR9 (Mus musculus, UniProt Q9EQU3); conditions: TLR 9 ligand; negative values indicate increased KC
Protocol: as §2

TLR 5 = TLR 5 (Mus musculus, UniProt Q9JLF7); conditions: TLR 5 ligand; negative values indicate increased KC
Protocol: as §2

TLR2 = TLR2 (Mus musculus, UniProt Q9QUN7); conditions: TLR 2 ligand; negative values indicate increased KC
Protocol: as §2

TLR4 = TLR4 (Mus musculus, UniProt Q9QUK6); conditions: TLR 4 ligand; negative values indicate increased KC
Protocol: as §2

TLR2/6 = TLR2/6 (Mus musculus, UniProt Q9EPW9+Q9QUN7); conditions: TLR 2/6 ligand; negative values indicate increased KC
Protocol: as §2

TLR1/2 = TLR1/2 (Mus musculus, UniProt Q9EPQ1+Q9QUN7); conditions: TLR 1/2 ligand; negative values indicate increased KC
Protocol: as §2

[3] = test system: LPS stimulated peritoneal macrophages
Protocol: Following 2 hours of incubation, cells were lysed, RNA was isolated, and a cDNA reaction was performed. RNA was harvested using the QIAGEN (Germantown, Md.) RNeasy® Plus Mini kit according to the manufacturer's Animal Cell Protocol (2005). RNA concentration and purity was determined by spectrophotometry using NANODROP 1000 spectrophotometer (Thermo Fisher Scientific, Wilmington, Del.). The expression of KC, IL-6, and TNF alpha were assessed by quantitative PCR. RNA expression levels of selected genes were quantified using the delta/delta C(t) (ΔΔCt) method using the expression of 18S as an internal reference for each sample. RNA was quantified by a two-step procedure in which RNA was converted to cDNA by reverse transcription using the iSCRIPT cDNA Synthesis kit from Bio-Rad followed by quantitative PCR (qPCR) using iQ SYBR Green Supermix from Bio-Rad.
The following cDNA synthesis reaction conditions were used: […]
The following quantitative PCR reaction conditions were used: […]
Data were collected and analyzed using the (delta/delta) ΔΔCt method. […] The fold change was then determined by the equation: 2^−ΔΔCt. […]

[4] = test system: macrophages stimulated with S. pneumoniae; conditions: S. pneumoniae challenge, 0, 5, 10, 25 mM, 2 hours
Protocol: (§3) To assess the level of bacterial induced inflammation in isolated peritoneal murine macrophages, isolated cells were placed in cell culture media and allowed to adhere to 96 well plates overnight. […] Following two hours of incubation, supernatants were collected for LUMINEX analysis of KC and TNF alpha with the results shown in FIG. 19.

[5] = test system: macrophages stimulated with K. pneumoniae; conditions: 1×10^7 CFU/ml K. pneumoniae, 0, 5, 10, 25 mM, 2 hours
Protocol: as §3

Chain of TLR7 (P58681 27-1050): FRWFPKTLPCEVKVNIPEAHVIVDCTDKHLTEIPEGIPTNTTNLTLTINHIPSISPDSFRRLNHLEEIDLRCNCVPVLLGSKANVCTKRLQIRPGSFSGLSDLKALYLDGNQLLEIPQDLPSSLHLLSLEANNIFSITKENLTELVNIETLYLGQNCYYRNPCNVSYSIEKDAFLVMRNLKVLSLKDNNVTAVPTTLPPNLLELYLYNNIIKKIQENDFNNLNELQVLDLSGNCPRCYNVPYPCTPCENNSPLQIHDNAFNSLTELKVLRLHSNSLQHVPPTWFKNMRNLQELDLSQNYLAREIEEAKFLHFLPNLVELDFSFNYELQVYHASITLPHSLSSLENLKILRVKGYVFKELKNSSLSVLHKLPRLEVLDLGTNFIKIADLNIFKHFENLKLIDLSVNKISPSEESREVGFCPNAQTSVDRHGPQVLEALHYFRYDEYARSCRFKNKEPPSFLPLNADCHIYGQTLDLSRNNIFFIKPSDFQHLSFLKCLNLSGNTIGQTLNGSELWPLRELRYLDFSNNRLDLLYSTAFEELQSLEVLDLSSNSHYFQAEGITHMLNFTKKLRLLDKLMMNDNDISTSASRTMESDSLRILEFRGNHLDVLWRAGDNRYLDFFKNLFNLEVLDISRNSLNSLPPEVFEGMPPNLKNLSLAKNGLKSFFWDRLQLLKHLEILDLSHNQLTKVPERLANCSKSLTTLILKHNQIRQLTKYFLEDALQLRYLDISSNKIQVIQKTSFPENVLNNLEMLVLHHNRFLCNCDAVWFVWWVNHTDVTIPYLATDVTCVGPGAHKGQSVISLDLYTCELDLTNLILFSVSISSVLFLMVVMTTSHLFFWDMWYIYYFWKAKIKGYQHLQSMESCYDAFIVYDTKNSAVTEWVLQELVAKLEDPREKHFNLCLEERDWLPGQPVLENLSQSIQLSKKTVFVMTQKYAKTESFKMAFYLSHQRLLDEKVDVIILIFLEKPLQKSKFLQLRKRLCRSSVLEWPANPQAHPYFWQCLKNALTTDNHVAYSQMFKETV
Chain of TLR9 (Q9EQU3 26-1032): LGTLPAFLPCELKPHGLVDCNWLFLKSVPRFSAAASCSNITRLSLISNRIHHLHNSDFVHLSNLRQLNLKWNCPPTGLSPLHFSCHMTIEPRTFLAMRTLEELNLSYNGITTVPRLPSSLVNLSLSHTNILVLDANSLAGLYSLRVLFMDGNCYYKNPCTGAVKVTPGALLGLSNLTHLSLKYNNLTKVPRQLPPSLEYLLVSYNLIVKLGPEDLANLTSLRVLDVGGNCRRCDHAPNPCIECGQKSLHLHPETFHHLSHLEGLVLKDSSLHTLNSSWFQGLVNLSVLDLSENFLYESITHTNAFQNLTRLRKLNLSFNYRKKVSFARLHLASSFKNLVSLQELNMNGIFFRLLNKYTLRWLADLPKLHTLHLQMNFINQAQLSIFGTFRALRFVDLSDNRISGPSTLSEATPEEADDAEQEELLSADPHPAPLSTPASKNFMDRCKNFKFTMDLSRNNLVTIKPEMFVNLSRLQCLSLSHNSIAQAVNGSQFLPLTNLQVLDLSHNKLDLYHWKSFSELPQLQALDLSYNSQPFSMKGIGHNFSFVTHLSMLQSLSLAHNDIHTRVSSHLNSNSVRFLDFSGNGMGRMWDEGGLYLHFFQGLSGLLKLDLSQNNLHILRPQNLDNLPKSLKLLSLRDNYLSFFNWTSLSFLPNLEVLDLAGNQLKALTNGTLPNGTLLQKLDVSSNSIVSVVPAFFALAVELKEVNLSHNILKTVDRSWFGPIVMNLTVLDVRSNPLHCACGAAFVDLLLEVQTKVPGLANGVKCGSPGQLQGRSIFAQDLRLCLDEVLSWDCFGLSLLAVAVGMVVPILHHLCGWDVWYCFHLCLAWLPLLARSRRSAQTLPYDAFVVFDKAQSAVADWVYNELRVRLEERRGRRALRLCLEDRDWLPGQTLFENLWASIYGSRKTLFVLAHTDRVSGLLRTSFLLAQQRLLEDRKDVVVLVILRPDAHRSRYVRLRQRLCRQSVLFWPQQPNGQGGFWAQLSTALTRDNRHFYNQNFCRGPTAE
Chain of TLR1/2 (Q9EPQ1 26-795): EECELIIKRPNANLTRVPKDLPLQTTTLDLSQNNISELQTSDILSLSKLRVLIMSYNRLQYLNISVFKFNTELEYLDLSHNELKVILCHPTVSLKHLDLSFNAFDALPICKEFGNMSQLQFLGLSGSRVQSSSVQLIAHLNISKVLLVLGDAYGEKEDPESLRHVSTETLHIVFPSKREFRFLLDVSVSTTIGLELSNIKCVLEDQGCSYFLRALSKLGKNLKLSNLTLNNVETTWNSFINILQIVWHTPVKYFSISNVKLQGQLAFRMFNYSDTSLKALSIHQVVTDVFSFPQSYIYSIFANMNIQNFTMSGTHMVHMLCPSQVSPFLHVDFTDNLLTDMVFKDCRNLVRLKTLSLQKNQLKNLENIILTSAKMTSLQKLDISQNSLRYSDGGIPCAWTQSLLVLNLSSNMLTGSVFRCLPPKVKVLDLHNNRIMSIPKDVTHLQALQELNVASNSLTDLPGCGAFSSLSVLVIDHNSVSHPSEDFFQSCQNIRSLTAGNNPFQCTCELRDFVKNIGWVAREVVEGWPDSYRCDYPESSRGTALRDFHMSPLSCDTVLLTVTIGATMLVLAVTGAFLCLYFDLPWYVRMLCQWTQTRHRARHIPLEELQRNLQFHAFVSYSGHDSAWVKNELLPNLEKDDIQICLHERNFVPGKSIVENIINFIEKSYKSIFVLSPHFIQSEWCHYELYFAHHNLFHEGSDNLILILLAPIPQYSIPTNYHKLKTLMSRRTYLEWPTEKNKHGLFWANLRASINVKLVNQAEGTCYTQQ
Chain of TLR1/2 (Q9QUN7 25-784): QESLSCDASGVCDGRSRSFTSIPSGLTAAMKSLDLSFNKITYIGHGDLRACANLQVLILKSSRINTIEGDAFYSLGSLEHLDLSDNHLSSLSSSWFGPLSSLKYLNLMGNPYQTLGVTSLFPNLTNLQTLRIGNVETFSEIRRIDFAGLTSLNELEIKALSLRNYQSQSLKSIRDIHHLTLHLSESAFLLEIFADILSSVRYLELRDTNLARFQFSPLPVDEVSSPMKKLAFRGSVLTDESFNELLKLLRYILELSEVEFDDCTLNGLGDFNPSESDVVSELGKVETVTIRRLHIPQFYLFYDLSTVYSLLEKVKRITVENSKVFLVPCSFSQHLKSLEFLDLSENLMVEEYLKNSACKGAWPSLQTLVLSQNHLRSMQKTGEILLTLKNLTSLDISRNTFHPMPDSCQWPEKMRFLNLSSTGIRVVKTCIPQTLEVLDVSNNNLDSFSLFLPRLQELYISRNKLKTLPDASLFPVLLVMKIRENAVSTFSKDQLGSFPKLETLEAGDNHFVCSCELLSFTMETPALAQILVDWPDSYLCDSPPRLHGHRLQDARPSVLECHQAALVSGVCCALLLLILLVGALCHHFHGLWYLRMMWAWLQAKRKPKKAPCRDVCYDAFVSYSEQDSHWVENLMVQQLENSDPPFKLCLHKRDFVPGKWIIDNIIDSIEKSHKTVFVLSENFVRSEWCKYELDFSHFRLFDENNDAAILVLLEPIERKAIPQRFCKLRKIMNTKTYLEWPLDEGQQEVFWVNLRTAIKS
Chain of TLR 5 (Q9JLF7 27-859): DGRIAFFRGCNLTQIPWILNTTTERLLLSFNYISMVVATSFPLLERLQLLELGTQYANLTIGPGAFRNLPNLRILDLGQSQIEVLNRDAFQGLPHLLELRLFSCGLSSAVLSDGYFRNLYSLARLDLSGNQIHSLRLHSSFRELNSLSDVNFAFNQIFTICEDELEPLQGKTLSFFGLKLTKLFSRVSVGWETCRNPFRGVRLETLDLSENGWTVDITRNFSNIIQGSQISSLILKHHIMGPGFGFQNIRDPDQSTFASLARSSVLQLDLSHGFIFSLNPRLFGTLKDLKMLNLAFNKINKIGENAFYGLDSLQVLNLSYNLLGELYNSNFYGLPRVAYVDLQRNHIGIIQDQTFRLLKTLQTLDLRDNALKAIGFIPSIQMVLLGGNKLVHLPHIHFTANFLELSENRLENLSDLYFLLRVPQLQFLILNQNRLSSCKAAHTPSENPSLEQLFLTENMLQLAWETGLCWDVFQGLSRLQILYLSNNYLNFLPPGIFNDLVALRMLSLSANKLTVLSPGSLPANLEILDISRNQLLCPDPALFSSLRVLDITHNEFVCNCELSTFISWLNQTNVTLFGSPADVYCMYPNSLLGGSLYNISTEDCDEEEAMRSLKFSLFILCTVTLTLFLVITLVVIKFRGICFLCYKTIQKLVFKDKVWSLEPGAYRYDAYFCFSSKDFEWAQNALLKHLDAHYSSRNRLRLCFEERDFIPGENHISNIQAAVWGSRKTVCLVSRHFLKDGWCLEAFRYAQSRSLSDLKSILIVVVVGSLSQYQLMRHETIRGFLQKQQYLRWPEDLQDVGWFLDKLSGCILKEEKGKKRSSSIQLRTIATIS
Chain of TLR2 (Q9QUN7 25-784): as the sequence (Q9QUN7 25-784) above

Structure (SMILES): CC(O)C(=O)[O-].CC(O)C(=O)[O-].[Ca+2] (stereo not shown) [calcium lactate]
- LPS induced inflammatory mediator secretion (KC, IL-6) [1]: more profound effect
- LPS induced cytokine production (IL-8, IL-6) (human macrophages): most profound effect

Structure (SMILES): COc1ccc(CCCOC(Cn2ccnc2)c2ccc(OC)cc2)cc1 (stereo not shown) [SKF 96365]
- KC and IL-6 concentrations ([2]; 5, 20, 50 micromolar, 10 ng/ml LPS, 2 hours): dose dependent decrease
- TNF alpha concentration ([2]; 20 and 50 micromolar, 10 ng/ml LPS): reduced at the highest two doses
- decrease in KC concentration ([2]; 50 micromolar, 10 ng/ml LPS): 51%
- KC and TNF alpha reduction ([2]; along with 10 mM calcium chloride, compared to calcium chloride alone): small increase

Structure (SMILES): CC(=O)N[C@H]1[C@H]([C@H](O)[C@H](O)CO)OC(C(=O)O)=C[C@@H]1N=C(N)N [Zanamivir, zanamivir]
- viral infection / Influenza titer versus untreated (Air) control (Influenza A/WSN/33/1): reduced viral infection in a dose responsive manner

Structure (SMILES): N.N.N.N.N.N.N.N.N.N.N.N.N.N.[Cl-].[Cl-].[Cl-].[Cl-].[Cl-].[Cl-].[O-2].[O-2].[Ru+3].[Ru+3].[Ru+4] [ruthenium red]
- decrease in KC concentration ([2]; in the presence of 10 mM calcium chloride, 1 ng/ml LPS): further enhanced
- decrease in KC concentration ([2]; ruthenium red alone (1, 5, 10, 20 micromolar), 1 ng/ml LPS, 2 hours): more than 50%

Structure (SMILES): [Cl-].[Na+] [sodium chloride, reference compound]
- LPS induced inflammatory mediator secretion (KC, IL-6) [1]: little influence
- LPS induced cytokine production (IL-8, IL-6) (human macrophages): little influence

Structure (SMILES): [Cl-].[Cl-].[Mg+2] [magnesium chloride]
- LPS induced inflammatory mediator secretion (KC, IL-6) [1]: some activity
- LPS induced cytokine production (IL-8, IL-6) (human macrophages): of lesser magnitude than calcium lactate but more potent than sodium chloride

Structure (SMILES): C[S+]([O-])c1ccc(-c2nc(-c3ccncc3)c(-c3ccc(F)cc3)[nH]2)cc1 (stereo not shown) [p38 MAP kinase inhibitor]
- pulmonary total cell response to ozone exposure (neutrophils in the BAL): significantly inhibited

Structure (SMILES): [Ca+2].[Cl-].[Cl-] [calcium chloride]
- % KC reduction at 10 mM calcium ion (TLR3): 81 ± 7%
- % KC reduction at 25 mM calcium ion (TLR3): 76 ± 16%
- % KC reduction at 10 mM calcium ion (TLR7): −10 ± 41%
- % KC reduction at 25 mM calcium ion (TLR7): −20 ± 49%
- % KC reduction at 10 mM calcium ion (TLR9): −55 ± 51%
- % KC reduction at 25 mM calcium ion (TLR9): −144%
- % KC reduction at 10 mM calcium ion (TLR 5): 54 ± 6%
- % KC reduction at 25 mM calcium ion (TLR 5): 50 ± 2%
- % KC reduction at 10 mM calcium ion (TLR2): 46 ± 10%
- % KC reduction at 25 mM calcium ion (TLR2): 85 ± 9%
- % KC reduction at 10 mM calcium ion (TLR4): 68 ± 15%
- % KC reduction at 25 mM calcium ion (TLR4): 75 ± 13%
- % KC reduction at 10 mM calcium ion (TLR2/6): −25 ± 11%
- % KC reduction at 25 mM calcium ion (TLR2/6): −51 ± 27%
- % KC reduction at 10 mM calcium ion (TLR1/2): −1 ± 9%
- % KC reduction at 25 mM calcium ion (TLR1/2): −27 ± 58%
- protein secretion of KC, IL-6 and TNF alpha ([1]; 1 ng/ml LPS, 2 hours, 10, 25, 50 mM, compared to untreated (0) cells): significantly reduced
- cell viability ([1]; Presto blue or trypan blue assays): generally did not affect cell viability
- LPS induced inflammatory mediator secretion (KC, IL-6) [1]: decreased
- inflammatory mediator release of unstimulated cells ([1]; no LPS, increasing calcium chloride content): mild increase
- inflammatory cytokine secretion (IL-8, IL-6, TNF alpha, MIP-1 alpha; IL-8 only for COPD) (human macrophages; 25 mM, to near that of non-LPS challenged cells): significant decline
- LPS induced cytokine production (IL-8, IL-6) (human macrophages): of lesser magnitude than calcium lactate but more potent than sodium chloride
- gene expression of KC, IL-6 and TNFα ([3]; 1 ng/ml LPS, 2 hours, 10, 25, 50 mM, compared to untreated (0)): significantly reduced
- NRIP1 gene expression ([3]; LPS stimulated): significantly reduced
- inflammatory mediator secretion (KC, TNF alpha) [4]: little effect
- inflammatory mediator secretion (KC, TNF alpha) [5]: dose-dependent decrease
